Legend:
[1] = tested on: DBA/2 mice; assay: Audiogenic seizure model; assay type: in vivo; conditions: Mus musculus, DBA/2 mice, oral, auditory stimulation 1 hour after administration, read-out: Seizure suppression
Summary of the method: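 Male and female DBA/2 mice (3 weeks old, 8/group) dosed orally at 30 mg/kg in 5% gum arabic; 1 h later exposed to 12.6 kHz, 100-110 dB tone for 1 min or until tonic seizure. Maximum seizure score (0–4) recorded; suppression rate graded A (≥90%), B (70–<90%), C (50–<70%).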

[2] = tested on: ICR mice; assay: Rotarod test (motor coordination); assay type: in vivo, mouse; conditions: oral, rotarod 1 hour after administration
Experimental: This test is performed to evaluate the effect of the compound on the motor coordination. In this test example, the example compounds shown in Table 4 below were used as test compounds. Male ICR mice (Japan SLC, Inc., 5-6 weeks, 8 per group) were trained to remain on a fixed speed (15 rpm) rotating rod of rotarod apparatus (Muromachi Kikai Co., Ltd.) for 2 minutes. […] After 1 hour of oral administration, the mice were again placed on the rod accelerated from 4 rpm to 40 rpm over 5 minutes and the latency to fall off the rod was recorded for 200 seconds. The falling latency of the compound administration group was calculated as a relative value relative to the average value of the falling latency in the solvent administration group. Here, a coordination disorder of 25% or less was expressed as “A”, and a coordination disorder of more than 25% and 50% or less was expressed as “B”.

CCC1CC(=O)NC(=O)N1c1ccc(Oc2ccccc2)cc1 (stereo not drawn) [Example 343, 6-Ethyl-1-(4-Phenoxyphenyl)Dihydropyrimidine-2,4 (1H,3H)-Dione]
inhibition in vivo at 30 mg/kg [1]: > 90%
Motor dysfunction ([2]; dose 30 mg/kg): A (a coordination disorder of 25% or less)

O=c1ccc(-c2cnc(Oc3ccccc3)nc2)c[nH]1 [Example 103]
inhibition in vivo at 30 mg/kg [1]: > 90%
Motor dysfunction ([2]; dose 30 mg/kg): A (a coordination disorder of 25% or less)

O=c1ccc(-c2cnc(Oc3ccccc3F)nc2)n[nH]1 [Example 95]
inhibition in vivo at 3 mg/kg [1]: > 90%
Motor dysfunction ([2]; dose 10 mg/kg): A (a coordination disorder of 25% or less)

O=c1ccc(-c2cnc(Oc3ccc(F)cc3)nc2)n[nH]1 [Example 97]
inhibition in vivo at 3 mg/kg [1]: > 90%
Motor dysfunction ([2]; dose 3 mg/kg): A (a coordination disorder of 25% or less)

O=C1CCN(c2ccc(Oc3ccccc3)nn2)C(=O)N1 [Example 347, 1-(6-Phenoxypyridazin-3-Yl)Dihydropyrimidine-2,4 (1H,3H)-Dione]
inhibition in vivo at 30 mg/kg [1]: > 90%
Motor dysfunction ([2]; dose 30 mg/kg): A (a coordination disorder of 25% or less)

c1ccc(Oc2ncc(-c3ccnc4ccccc34)cn2)cc1 [Example 118, 4-(2-Phenoxypyrimidin-5-Yl) Quinoline]
inhibition in vivo at 5 mg/kg [1]: 70 to 90%
Motor dysfunction ([2]; dose 5 mg/kg): A (a coordination disorder of 25% or less)

Cc1nc(N)ccc1-c1cnc(Oc2ccccc2)nc1 [Example 59]
inhibition in vivo at 3 mg/kg [1]: > 90%
Motor dysfunction ([2]; dose 3 mg/kg): A (a coordination disorder of 25% or less)

Cc1cnc2ccc(-c3cnc(Oc4ccccc4)nc3)cn12 [Example 190]
inhibition in vivo at 5 mg/kg [1]: > 90%
Motor dysfunction ([2]; dose 5 mg/kg): A (a coordination disorder of 25% or less)

O=C1CCCCN1c1cnc(Oc2cccc(F)c2)nc1 [Example 222]
inhibition in vivo at 30 mg/kg [1]: > 90%
Motor dysfunction ([2]; dose 30 mg/kg): A (a coordination disorder of 25% or less)

[O-][n+]1cccc(-c2cnc(Oc3ccccc3)nc2)c1 [Example 11, 3-(2-Phenoxypyrimidin-5-Yl)Pyridine 1-Oxide]
inhibition in vivo at 5 mg/kg [1]: > 90%
Motor dysfunction ([2]; dose 5 mg/kg): A (a coordination disorder of 25% or less)

OC1CCN(c2cnc(Oc3ccccc3)nc2)CC1 [Example 226, 1-(2-Phenoxypyrimidin-5-Yl) Piperidin-4-Ol]
inhibition in vivo at 5 mg/kg [1]: > 90%
Motor dysfunction ([2]; dose 5 mg/kg): B (a coordination disorder of more than 25% and 50% or less)

Cc1ccc(-c2cnc(Oc3ccccc3)nc2)c(N)n1 [Example 64]
inhibition in vivo at 3 mg/kg [1]: > 90%
Motor dysfunction ([2]; dose 3 mg/kg): A (a coordination disorder of 25% or less)

Cn1ncc2ccc(-c3cnc(Oc4ccccc4)nc3)nc21 [Example 275]
inhibition in vivo at 30 mg/kg [1]: > 90%
Motor dysfunction ([2]; dose 30 mg/kg): A (a coordination disorder of 25% or less)

Cc1ccc(-c2cnc(Oc3ccccc3)nc2)nn1 [Example 2]
inhibition in vivo at 30 mg/kg [1]: > 90%
Motor dysfunction ([2]; dose 10 mg/kg): A (a coordination disorder of 25% or less)

FC(F)(F)c1ncc2ccc(-c3cnc(Oc4ccccc4)nc3)cn12 [Example 285]
inhibition in vivo at 5 mg/kg [1]: > 90%
Motor dysfunction ([2]; dose 5 mg/kg): A (a coordination disorder of 25% or less)

c1ccc(Oc2ncc(-c3ccn4cncc4c3)cn2)cc1 [Example 283]
inhibition in vivo at 5 mg/kg [1]: > 90%
Motor dysfunction ([2]; dose 5 mg/kg): A (a coordination disorder of 25% or less)

Cc1nc2cc(-c3cnc(Oc4ccccc4)nc3)ccn2c1C [Example 204]
inhibition in vivo at 30 mg/kg [1]: > 90%
Motor dysfunction ([2]; dose 5 mg/kg): A (a coordination disorder of 25% or less)

c1ccc(Oc2ncc(-c3cnc4cc[nH]c4c3)cn2)cc1 [Example 137, 6-(2-Phenoxypyrimidin-5-Yl)-1H-Pyrrolo[3,2-b]Pyridine]
inhibition in vivo at 30 mg/kg [1]: > 90%
Motor dysfunction ([2]; dose 30 mg/kg): A (a coordination disorder of 25% or less)

c1ccc(Oc2ncc(-c3ccn4cnnc4c3)cn2)cc1 [Example 211]
inhibition in vivo at 30 mg/kg [1]: > 90%
Motor dysfunction ([2]; dose 30 mg/kg): B (a coordination disorder of more than 25% and 50% or less)

O=c1cnc2cc(-c3cnc(Oc4ccccc4)nc3)ccc2[nH]1 [Example 256]
inhibition in vivo at 5 mg/kg [1]: 70 to 90%
Motor dysfunction ([2]; dose 5 mg/kg): A (a coordination disorder of 25% or less)

Nc1ccc(-c2cnc(Oc3ccccc3)nc2)c(N)n1 [Example 66]
inhibition in vivo at 30 mg/kg [1]: > 90%
Motor dysfunction ([2]; dose 30 mg/kg): A (a coordination disorder of 25% or less)

Cc1cccc(Oc2ncc(-c3ccc4nccn4c3)cn2)c1 [Example 161]
inhibition in vivo at 5 mg/kg [1]: > 90%
Motor dysfunction ([2]; dose 5 mg/kg): A (a coordination disorder of 25% or less)

c1ccc(Oc2ncc(-c3ccc4cncn4c3)cn2)cc1 [Example 155]
inhibition in vivo at 5 mg/kg [1]: > 90%
Motor dysfunction ([2]; dose 5 mg/kg): A (a coordination disorder of 25% or less)

c1ccc(Oc2ncc(-c3ccc4ncnn4c3)cn2)cc1 [Example 141]
inhibition in vivo at 5 mg/kg [1]: > 90%
Motor dysfunction ([2]; dose 5 mg/kg): B (a coordination disorder of more than 25% and 50% or less)

O=C1COCCN1c1cnc(Oc2ccccc2)nc1 [Example 229, 4-(2-Phenoxypyrimidin-5-Yl) Morpholin-3-One]
inhibition in vivo at 30 mg/kg [1]: > 90%
Motor dysfunction ([2]; dose 30 mg/kg): A (a coordination disorder of 25% or less)

c1ccc(Oc2ncc(-c3cnc4ncnn4c3)cn2)cc1 [Example 188]
inhibition in vivo at 30 mg/kg [1]: > 90%
Motor dysfunction ([2]; dose 30 mg/kg): A (a coordination disorder of 25% or less)

O=C1CCN(c2ccc(Oc3ccccn3)cc2)C(=O)N1 [Example 316]
inhibition in vivo at 30 mg/kg [1]: > 90%
Motor dysfunction ([2]; dose 30 mg/kg): A (a coordination disorder of 25% or less)

O=C1NCCCN1c1cnc(Oc2ccccc2)nc1 [Example 220, 1-(2-Phenoxypyrimidin-5-Yl)Tetrahydropyrimidin-2 (1H)-One]
inhibition in vivo at 30 mg/kg [1]: > 90%
Motor dysfunction ([2]; dose 30 mg/kg): A (a coordination disorder of 25% or less)

O=c1ccc(-c2cnc(Oc3c(F)cccc3F)nc2)n[nH]1 [Example 101]
inhibition in vivo at 3 mg/kg [1]: > 90%
Motor dysfunction ([2]; dose 3 mg/kg): A (a coordination disorder of 25% or less)

c1ccc(Oc2ncc(-c3ccc4ncccc4n3)cn2)cc1 [Example 143]
inhibition in vivo at 30 mg/kg [1]: > 90%
Motor dysfunction ([2]; dose 30 mg/kg): A (a coordination disorder of 25% or less)

c1ccc(Oc2ncc(-c3ccnnc3)cn2)cc1 [Example 31]
inhibition in vivo at 5 mg/kg [1]: > 90%
Motor dysfunction ([2]; dose 5 mg/kg): A (a coordination disorder of 25% or less)

c1ccc(Oc2ncc(-c3ccc4nccn4c3)cn2)cc1 [Example 119, 6-(2-Phenoxypyrimidin-5-Yl) Imidazo[1,2-a]Pyridine]
inhibition in vivo at 5 mg/kg [1]: > 90%
Motor dysfunction ([2]; dose 5 mg/kg): A (a coordination disorder of 25% or less)

O=C1Cc2cc(-c3cnc(Oc4ccccc4)nc3)ccc2N1 [Example 259]
inhibition in vivo at 5 mg/kg [1]: > 90%
Motor dysfunction ([2]; dose 5 mg/kg): A (a coordination disorder of 25% or less)

O=C1CCC(c2cnc(Oc3ccccc3)nc2)=NN1 [Example 92, 6-(2-Phenoxypyrimidin-5-Yl)-4,5-Dihydropyridazin-3 (2H)-One]
inhibition in vivo at 5 mg/kg [1]: > 90%
Motor dysfunction ([2]; dose 5 mg/kg): A (a coordination disorder of 25% or less)

O=C1CCc2cc(-c3cnc(Oc4ccccc4)nc3)ccc2N1 [Example 245]
inhibition in vivo at 30 mg/kg [1]: > 90%
Motor dysfunction ([2]; dose 30 mg/kg): A (a coordination disorder of 25% or less)

c1ccc(Oc2ncc(-c3ccn4ccnc4c3)cn2)cc1 [Example 127]
inhibition in vivo at 5 mg/kg [1]: > 90%
Motor dysfunction ([2]; dose 5 mg/kg): B (a coordination disorder of more than 25% and 50% or less)

O=c1ccc(-c2cnc(Oc3cccc(F)c3)nc2)n[nH]1 [Example 93]
inhibition in vivo at 30 mg/kg [1]: > 90%
Motor dysfunction ([2]; dose 30 mg/kg): A (a coordination disorder of 25% or less)

CC1(C)CC(=O)NC(=O)N1c1ccc(Oc2ccccc2)cc1 [Example 337, 6,6-Dimethyl-1-(4-Phenoxyphenyl)Dihydropyrimidine-2,4 (1H,3H)-Dione]
inhibition in vivo at 30 mg/kg [1]: > 90%
Motor dysfunction ([2]; dose 30 mg/kg): A (a coordination disorder of 25% or less)

c1ccc(Oc2ncc(N3CCCCC3)cn2)cc1 [Example 223, 2-Phenoxy-5-(Piperidine-1-Yl)Pyrimidine]
inhibition in vivo at 30 mg/kg [1]: > 90%
Motor dysfunction ([2]; dose 30 mg/kg): A (a coordination disorder of 25% or less)

Nc1ccc(-c2cnc(Oc3ccccc3)nc2)nn1 [Example 30, 6-(2-Phenoxypyrimidin-5-Yl)Pyridazin-3-Amine]
inhibition in vivo at 5 mg/kg [1]: > 90%
Motor dysfunction ([2]; dose 5 mg/kg): A (a coordination disorder of 25% or less)

N#Cc1cccc(-c2cnc(Oc3ccccc3)nc2)c1 [Example 237]
inhibition in vivo at 30 mg/kg [1]: > 90%
Motor dysfunction ([2]; dose 30 mg/kg): A (a coordination disorder of 25% or less)

N#Cc1ccc(-c2cnc(Oc3ccccc3)nc2)cn1 [Example 297]
inhibition in vivo at 1 mg/kg [1]: > 90%
Motor dysfunction ([2]; dose 1 mg/kg): A (a coordination disorder of 25% or less)

Nc1ccc(-c2cnc(Oc3cccc(OC(F)(F)F)c3)nc2)nn1 [Example 42]
inhibition in vivo at 5 mg/kg [1]: > 90%
Motor dysfunction ([2]; dose 5 mg/kg): A (a coordination disorder of 25% or less)

Nc1nc2ccc(-c3cnc(Oc4ccccc4)nc3)cn2n1 [Example 298]
inhibition in vivo at 1 mg/kg [1]: > 90%
Motor dysfunction ([2]; dose 1 mg/kg): A (a coordination disorder of 25% or less)

COc1ccc(-c2cnc(Oc3cccnc3)nc2)nn1 [Example 74]
inhibition in vivo at 5 mg/kg [1]: > 90%
Motor dysfunction ([2]; dose 5 mg/kg): A (a coordination disorder of 25% or less)
